The values that follow come from patent US8530493B2, “Indolopyridines as Eg5 kinesin modulators” (4SC AG, priority 2006, dated 2013).

In data set [1] the test system is RKO p27 induced (arrested) colon adenocarcinoma cells. Kind of data set: Alamar Blue cell viability assay, RKO p27 induced by Ponasterone A (arrested). The data set is classed as cell-based. The conditions noted are these: Homo sapiens, RKOp27, Table B1, cells arrested by Ponasterone A-induced p27Kip1, 72 hours, read-out: −log EC50 RKO p27 induced (arrested) (converted). A digest of the protocol: (§1)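 RKOp21 or RKOp27 subclones in DMEM/10% FCS with 10 μM Ponasterone A to induce p21/p27 arrest, seeded 24 h before compound; triplicate 72 h exposure at 37 °C. Alamar Blue fluorescence (544/590 nm) as % of untreated (1% DMSO) cells; EC50 from dose-response curves, reported as −log EC50 (mol/l).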
A general note: Alamar Blue is a resazurin reagent that responds to reducing activity.

In data set [2] the test system is RKO p27 uninduced (proliferating) colon adenocarcinoma cells. Kind of data set: Alamar Blue cell viability assay, RKO p27 uninduced (proliferating). The class given is cell-based. The conditions noted are these: Homo sapiens, RKOp27, Table B1, anti-proliferative/cytotoxic activity, 72 hours, read-out: −log EC50 RKO p27 uninduced (proliferating) (converted). The method in brief:
(§2)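 RKO p21 or p27 subclones grown without Ponasterone A, i.e. proliferating, exposed 24 h after seeding to semi-log compound dilutions in DMEM/10% FCS (1% DMSO controls) for 72 h at 37° C. Alamar Blue fluorescence (544/590 nm) read relative to untreated cells; EC50 from dose-response curves, given as −log EC50 (mol/l).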

The test system of data set [3] is RKO p27 or p21 induced (arrested) colon adenocarcinoma cells. Kind of data set: Alamar Blue cell viability assay, RKO p27 or p21 induced (arrested). The class given is cell-based. The conditions noted are these: Homo sapiens, RKOp27, Table B2, cells arrested by Ponasterone A, 72 hours, read-out: −log EC50 RKO p27 or p21 induced (arrested) (converted). A digest of the protocol:
as §1

Data set [4] relates to RKO p27 or p21 uninduced (proliferating) colon adenocarcinoma cells. Kind of data set: Alamar Blue cell viability assay, RKO p27 or p21 uninduced (proliferating). The data set is classed as cell-based. Particulars: Homo sapiens, RKOp27, Table B2, anti-proliferative/cytotoxic activity, 72 hours, read-out: −log EC50 RKO p27 or p21 uninduced (proliferating) (converted). The method in brief:
as §2

What is called EC50 is the concentration giving half of the maximal effect. The term melting point denotes the temperature, or range, at which the solid turns liquid. In the case of `COc1ccc2[nH]c3c(c2c1)C[C@@]1(C)C(=O)N(CCn2ccnc2)C(=O)N1[C@@H]3c1cccc(O)c1` (racemic) [Example 13, (3aSR,10RS)-10-(3-Hydroxy-phenyl)-2-(2-imidazol-1-yl-ethyl)-6-methoxy-3a-methyl-3a,4,9,10-tetrahydro-2,9,10a-triaza-cyclopenta[b]fluorene-1,3-dione], the melting point is 321 to 324 °C. Further, the EC50 in data set [1] is ≥ 3160 nM. Also, the EC50 in data set [2] was 39.8 to 251 nM.
Molecule `CCOc1ccc2[nH]c3c(c2c1)C[C@@]1(C)C(=O)N(CCBr)C(=O)N1[C@@H]3c1cccc(O)c1` (racemic) [Example 22, (3aSR,10RS)-2-(2-Bromo-ethyl)-6-ethoxy-10-(3-hydroxy-phenyl)-3a-methyl-3a,4,9,10-tetrahydro-2,9,10a-triaza-cyclopenta[b]fluorene-1,3-dione] registered a melting point of 250 to 252 °C. Moreover, the EC50 in data set [1] was ≥ 3160 nM. For the same molecule, the EC50 in data set [3] is ≥ 316 nM. In data set [4], the EC50 was ≤ 39.8 nM. Also, the EC50 in data set [2] is 39.8 to 251 nM.
In turn, `COc1ccc2[nH]c3c(c2c1)C[C@@]1(C)C(=O)N(CCN2CCOCC2)C(=O)N1[C@@H]3c1cccc(O)c1` (racemic) [Example 10, (3aSR,10RS)-10-(3-Hydroxy-phenyl)-6-methoxy-3a-methyl-2-(2-morpholin-4-yl-ethyl)-3a,4,9,10-tetrahydro-2,9,10a-triaza-cyclopenta[b]fluorene-1,3-dione] returned a melting point of 260 to 263 °C. Besides, in data set [1], the EC50 is ≥ 3160 nM. Besides, the concentration for a half-maximal effect (EC50) in data set [2] was ≤ 39.8 nM.
`COc1ccc2[nH]c3c(c2c1)C[C@@]1(C)C(=O)N(CCBr)C(=O)N1[C@@H]3c1cccc(O)c1` (racemic) [Example 24, (3aSR,10RS)-2-(2-Bromo-ethyl)-10-(3-hydroxy-phenyl)-6-methoxy-3a-methyl-3a,4,9,10-tetrahydro-2,9,10a-triaza-cyclopenta[b]fluorene-1,3-dione] gave a melting point of 299 to 302 °C. Moreover, the EC50 in data set [1] was ≥ 3160 nM. Besides, the EC50 in data set [2] was 39.8 to 251 nM.
For `CN(C)CCN1C(=O)N2[C@H](c3cccc(O)c3)c3[nH]c4ccc(Cl)cc4c3C[C@@]2(C)C1=O` (racemic) [Example 9, (3aSR,10RS)-6-Chloro-2-(2-dimethylamino-ethyl)-10-(3-hydroxy-phenyl)-3a-methyl-3a,4,9,10-tetrahydro-2,9,10a-triaza-cyclopenta[b]fluorene-1,3-dione] the same measures were 283 to 286 °C, ≥ 3160 nM and ≤ 39.8 nM.
The molecule `C[C@@]12Cc3c([nH]c4ccc(Cl)cc34)[C@@H](c3cccc(O)c3)N1C(=O)N(CCBr)C2=O` (racemic) displayed a melting point of 262 to 264 °C.
The molecule `COc1ccc2[nH]c3c(c2c1)C[C@@]1(C)C(=O)N(CCN2CCCC2)C(=O)N1[C@@H]3c1cccc(O)c1` (racemic) [Example 11, (3aSR,10RS)-10-(3-Hydroxy-phenyl)-6-methoxy-3a-methyl-2-(2-pyrrolidin-1-yl-ethyl)-3a,4,9,10-tetrahydro-2,9,10a-triaza-cyclopenta[b]fluorene-1,3-dione] registered a melting point of 252 to 255 °C. Moreover, the EC50 in data set [1] is ≥ 3160 nM. Besides, the EC50 in data set [2] was ≤ 39.8 nM.
In the same order, the values of `COc1ccc2[nH]c3c(c2c1)C[C@@]1(C)C(=O)N(CCCN(C)C)C(=O)N1[C@@H]3c1cccc(O)c1` (racemic) [Example 15, (3aSR,10RS)-2-(3-Dimethylamino-propyl)-10-(3-hydroxy-phenyl)-6-methoxy-3a-methyl-3a,4,9,10-tetrahydro-2,9,10a-triaza-cyclopenta[b]fluorene-1,3-dione] are 228 to 231 °C, ≥ 3160 nM and ≤ 39.8 nM.
Consider `CCNCCN1C(=O)N2[C@H](c3cccc(O)c3)c3[nH]c4ccc(OC)cc4c3C[C@@]2(C)C1=O` (racemic) [Example 35, (3aSR,10RS)-2-(2-Ethylamino-ethyl)-10-(3-hydroxy-phenyl)-6-methoxy-3a-methyl-3a,4,9,10-tetrahydro-2,9,10a-triaza-cyclopenta[b]fluorene-1,3-dione], for which the results for the EC50 in data set [1] and in data set [2] were ≥ 3160 nM and ≤ 39.8 nM, respectively.
`COc1ccc2[nH]c3c(c2c1)C[C@@]1(C)C(=O)N(CCN2CCN(C)CC2)C(=O)N1[C@@H]3c1cccc(O)c1` (racemic) [Example 12, (3aSR,10RS)-10-(3-Hydroxy-phenyl)-6-methoxy-3a-methyl-2-[2-(4-methyl-piperazin-1-yl)ethyl]-3a,4,9,10-tetrahydro-2,9,10a-triaza-cyclopenta[b]fluorene-1,3-dione]: the melting point is 224 to 227 °C. In addition, in data set [1], the EC50 is ≥ 3160 nM. For the same molecule, the EC50 in data set [2] is 39.8 to 251 nM.
With `COc1ccc2[nH]c3c(c2c1)C[C@@]1(C)C(=O)N(CCNC2CCC2)C(=O)N1[C@@H]3c1cccc(O)c1` (racemic) [Example 50, (3aSR,10RS)-2-(2-Cyclobutylamino-ethyl)-10-(3-hydroxy-phenyl)-6-methoxy-3a-methyl-3a,4,9,10-tetrahydro-2,9,10a-triaza-cyclopenta[b]fluorene-1,3-dione], the EC50 in data set [1] is ≥ 3160 nM; in data set [2], ≤ 39.8 nM.
For `COc1ccc2[nH]c3c(c2c1)C[C@@]1(C)C(=O)N(CCNC2CC2)C(=O)N1[C@@H]3c1cccc(O)c1` (racemic) [Example 53, (3aSR,10RS)-2-(2-Cyclopropylamino-ethyl)-10-(3-hydroxy-phenyl)-6-methoxy-3a-methyl-3a,4,9,10-tetrahydro-2,9,10a-triaza-cyclopenta[b]fluorene-1,3-dione] the same measures were ≥ 3160 nM and ≤ 39.8 nM.
With `CN(C)CCN1C(=O)N2[C@H](c3cccc(O)c3)c3[nH]c4ccc(Br)cc4c3C[C@@]2(C)C1=O` (racemic) [Example 8, (3aSR,10RS)-6-Bromo-2-(2-dimethylamino-ethyl)-10-(3-hydroxy-phenyl)-3a-methyl-3a,4,9,10-tetrahydro-2,9,10a-triaza-cyclopenta[b]fluorene-1,3-dione], the melting point lay within 286 to 288 °C. Besides, the EC50 in data set [1] is ≥ 3160 nM. Further, in data set [2], the EC50 was ≤ 39.8 nM.
In the case of `COc1ccc2[nH]c3c(c2c1)C[C@@]1(C)C(=O)N(CCN2CCC2)C(=O)N1[C@@H]3c1cccc(O)c1` (racemic) [Example 33, (3aSR,10RS)-2-(2-Azetidin-1-yl-ethyl)-10-(3-hydroxy-phenyl)-6-methoxy-3a-methyl-3a,4,9,10-tetrahydro-2,9,10a-triaza-cyclopenta[b]fluorene-1,3-dione], the results for the EC50 in data set [1] and in data set [2] were ≥ 3160 nM and ≤ 39.8 nM, respectively.
In the same order, the values of `CCNCCCN1C(=O)N2[C@H](c3cccc(O)c3)c3[nH]c4ccc(OC)cc4c3C[C@@]2(C)C1=O` (racemic) [Example 51, (3aSR,10RS)-2-(3-Ethylamino-propyl)-10-(3-hydroxy-phenyl)-6-methoxy-3a-methyl-3a,4,9,10-tetrahydro-2,9,10a-triaza-cyclopenta[b]fluorene-1,3-dione] are ≥ 3160 nM and ≤ 39.8 nM.
